The source of these data is patent US20020037872A1, “N6 heterocyclic 5' modified adenosine derivatives” (CV Therapeutics, Inc., priority 1999, published 2002).

The target in assay [1] is T1, A1 receptor (Mesocricetus auratus, UniProt A0A1U8BVR4).
T1 construct: endogenous in cells; host or cells: DDT1 (DDT1 MF-2) hamster vas deferens smooth muscle cells
T1 sequence (A0A1U8BVR4 1-326): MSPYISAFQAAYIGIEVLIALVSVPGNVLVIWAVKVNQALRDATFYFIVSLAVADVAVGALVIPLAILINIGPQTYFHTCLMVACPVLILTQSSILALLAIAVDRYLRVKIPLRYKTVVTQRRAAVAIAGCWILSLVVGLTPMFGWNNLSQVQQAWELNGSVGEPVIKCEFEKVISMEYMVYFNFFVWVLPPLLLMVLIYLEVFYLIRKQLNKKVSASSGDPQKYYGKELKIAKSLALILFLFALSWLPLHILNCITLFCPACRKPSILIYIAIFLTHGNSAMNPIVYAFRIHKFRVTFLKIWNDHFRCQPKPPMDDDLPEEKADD
Nature of the assay: Competitive binding assay, DDT1 cell membranes, [3H]CCPA. More on the design: species or system hamster. The following applies: [3H]CCPA 2 nM, DDT1 cell membranes; read-out: Ki-DDT1 cell membrane. Here is the method:
Cells were subcultured twice weekly by dispersion in Hank's Balanced Salt Solution (HBSS) without the divalent cations and containing 1 mM EDTA. The cells were then seeded in growth medium at a density of 1.2×10^5 cells per plate and experiments were performed 4 days later at approximately one day preconfluence.
(§1) Attached cells were washed twice with HBSS (2×10 ml), scraped free of the plate with the aid of a rubber policeman in 5 ml of 50 mM Tris-HCI buffer pH 7.4 at 4° C. and the suspension homogenized for 10 s. The suspension was then centrifuged at 27,000×g for 10 min. The pellet was resuspended in homogenization buffer by vortexing and centrifuged as described above. The final pellet was resuspended in 1 vol of 50 mM Tris-HCI buffer pH 7.4 containing 5 mM MgCl2 for A1 AdoR assays. For the [^35S]GTPγS binding assay the final pellet was resuspended in 50 mM Tris-HCI pH 7.4 containing 5 mM MgCl2, 100 mM NaCl and 1 mM dithiothreitol. This membrane suspension was then placed in liquid nitrogen for 10 min, thawed and used for assays.
Competitive Binding Assay Pig striatum were prepared by homogenation in 50 mM Tris buffer (5× volume of tissue mass pH=7.4). After centrifilgation at 19,000 rpm for 25 minutes at 4° C., the supernatant was discarded, and the process was repeated twice. Compositions of this invention were assayed to determine their affinity for the A1 receptor in a pig striatum membrane prep or a DDT, membrane prep. Briefly, 0.2 mg of pig striatal membranes or DDT, cell membranes were treated with adenosine deaminase and 50 mM Tris buffer (pH=7.4) followed by mixing. To the pig membranes was added 2 μL of serially diluted DMSO stock solution of the compounds of this invention at concentrations ranging from 100 microM to 10 nM. The control received 2 microL of DMSO alone, then the antagonist [^3H] 8-cyclopentylxanthine (CPX) for pig striatum or the agonist [^3H] 2-chloro-6-cyclopentyladenosine (CCPA) for DDT, membranes in Tris buffer (50 mnM, pH of 7.4) was added to achieve a final concentration of 2 nM. After incubation at 23 C for 2 h, the solutions were filtered using a membrane harvester using multiple washing of the membranes (3×). The filter disks were counted in scintillation cocktail affording the amount of displacement of triated CPX or by the competitive binding compositions of this invention. In the case of the DDT1 cell membranes, some of the determinations of binding affinity (Ki) were made in the presence of Gpp(NH)p as noted in Table 1 (note: Gpp(NH)p shifts the receptor to a low affinity form). Greater than a 5 point curve was used to generate Ki's and the number of experiments is indicated in the column marked in Table 1 below.

Assay [2] has as its target T2, A1 adenosine receptor (Mesocricetus auratus, UniProt A0A1U8BVR4).
T2 construct: endogenous in cells; host or cells: DDT1 (DDT1 MF-2) hamster vas deferens smooth muscle cells
T2 sequence (A0A1U8BVR4 1-326): T1 sequence (A0A1U8BVR4 1-326)
Nature of the assay: [35S]GTPγS binding assay, A1-agonist stimulated. The assay is classed as biochemical, hamster. The note with it: agonist stimulated [35S]GTPγS binding, CPA = 100%. As to the method:
as §1, with “for assays. The protein content was determined by the method of Bradford (1976) using bovine serum albumin as standard.” for “for assays.”
A1-agonist stimulated [^35S]GTPγS binding was determined by a modification of the method described by Giersckik et al. (1991) and Lorenzen et al. (1993). […] Nonspecific binding was determined by the addition of 10 μM GTPγS. […] Previous reports have shown that agonist stimulated [^35S]GTPγS binding was dependent on the presence of GDP (Gierschik et al., 1991; Lorenzen et al., 1993; Traynor & Nahorski, 1995). […] In saturation experiments, 0.5 nM [^35S]GTPγS was incubated with 0.5-1000 nM GTPγS. At the end of the incubation, each suspension was filtered and the retained radioactivity determined as described above.
In general terms: GTPγS is a poorly hydrolysed GTP analogue; its binding reports G protein activation.

Assay [3] addresses T2, A1 adenosine receptor. Nature of the assay: cAMP assay (SPA) in DDT1 cells, forskolin-induced cAMP. The assay is classed as cell-based, hamster. The note with it: normalized to full agonist CPA, 5 μM forskolin, 50 μM rolipram; for Emax: 10 min. As to the method:
A scintillation proximity assay (SPA) using rabbit antibodies directed at cAMP using an added tracer of adenosine 3′,5′-cyclic phosphoric acid 2′-O-succinyl-3-[^125I]iodotyrosine methyl ester and fluoromicrospheres containing anti-rabbit specific antibodies as described by Amersham Pharmacia Biotech (Biotrak cellular communication assays). Briefly, DDT1 cells were cultured in clear bottomed 96 well microtiter plates with opaque wells at concentrations between 10^4 to 10^6 cells per well in 40 μl of HBSS at 37° C. (5% CO2 and 95% humidity). The partial or full A1 agonists (5 μl) of this invention were incubated at various concentrations with the DDT1 cells in the presence of rolipram (50 μM), and 5 μM forskolin for 10 min at 37° C. The cells were immediately lysed by treatment 5 μl of 10% dodecyltrirnethylammonium bromide followed by shaking using rnicroplate shaker. After incubation of the plate for 5 minutes, an imnuunoreagent solution (150 μl containing equal volumes of tracer, antiserum, and SPA fluorospheres) was added to each well followed by sealing the plate. After 15-20 h at 23° C., the amount of bound [^125] cAM to the fluoromicrospheres was determined by counting in a microtitre plate scintillation counter for 2 minutes. Comparison of counts with standard curves generated for cAMP using a similar protocol afforded the cAMP present after cell lysis.
(Changes in cAMP serve as a functional read-out for many G protein-coupled receptors.)

Turning to `C=CCNC(=O)OC[C@H]1O[C@@H](n2cnc3c(N[C@@H]4CCOC4)ncnc32)[C@H](O)[C@@H]1O` [Compound 41, [(5-{6[((3R)oxolan-3-yl)amino]purin-9-yl}(3S, 2R, 4R, 5R)-3,4-dihydroxyoxolan-2-yl)methoxy]-N-prop2-enylcarboxamide], in assay [1], the Ki was determined as 668 nM. Also, the Emax in assay [2] was 48%; in assay [3], 17%.
Taken in the same sequence, the figures for `O=C(NC1CCCC1)OCC1OC(n2cnc3c(NC4CCOC4)nc(Cl)nc32)C(O)C1O` [Compound 69, [(5-16-[((3R)oxolan-3-yl)amino]-2-chloropurin-9-yl}(3S,2R,4R,5R)-3,4-dihydroxyoxolan-2-yl)methoxy]-N-cyclopentylcarboxamide] were 380 nM, 50% and 18%.
With `CCOC(=O)C1C2CCC(C2)C1NC(=O)OCC1OC(n2cnc3c(N[C@@H]4CCOC4)ncnc32)C(O)C1O` (stereo partly drawn) [Compound 36, Ethyl 3-{[5-{6-[(3R)oxolan-3-yl)aminolpurin-9-yl}(3S,2R,4R,5R)-3,4-dihydroxyoxolan-2-yl)methoxylcarbonylamino}(2S,3R)bicylo[2.2.1]heptane-2-carboxylate], the Ki in assay [1] was determined as 1520 nM. For the same compound, the Emax in assay [2] was found to be 41%; in assay [3], 10%.
With `CCOC(=O)C1C2C=CC(C2)C1NC(=O)OCC1OC(n2cnc3c(N[C@@H]4CCOC4)ncnc32)C(O)C1O` (stereo partly drawn) [Compound 35, Ethyl 3-{[5-{6-[(3R)oxolan-3-yl)amiinolpurin-9-yl}(3S,2R,4R,5R)-3,4-dihydroxyoxolan-2-yl)methoxylcarbonylamino)(2S,3R)bicylo[2.2.]hept-5-ene2-carboxylate], the Ki in assay [1] is 1010 nM. Besides, the figures for the Emax in assay [2] and in assay [3] were 52% and -4%, respectively.
`OC1C(COC(=S)NC2CCCC2OCc2ccccc2)OC(n2cnc3c(N[C@@H]4CCOC4)ncnc32)C1O` (stereo partly drawn) [Compound 56]: in assay [1], the Ki was 1240 nM. The same compound registered a GTPγS in assay [2] of 52%. The cAMP in assay [3] was found to be 43%.
Turning to `O=C(N[C@H]1CCC[C@@H]1O)OC[C@H]1O[C@@H](n2cnc3c(N[C@@H]4CCOC4)ncnc32)[C@H](O)[C@@H]1O` [Compound 61, {(5-{6[((3R)oxolan-3-yl)amino]purin-9-yl}(3S,2R,4R,5R)-3,4dihydroxyoxolan-2-yl)methoxy]-N-((1S,2S)-2-hydroxycyclopentyl)carboxamide], the Ki in assay [1] is 1570 nM. The results for the Emax in assay [2] and in assay [3] were 59% and 53%, respectively.
On the same counts, the results for `COC(=O)C1CCCC1NC(=O)OCC1OC(n2cnc3c(N[C@@H]4CCOC4)ncnc32)C(O)C1O` (stereo partly drawn) [Compound 34] are 3460 nM, 17% and -20%.
Turning to `O=C(NC1CCCC1O)OCC1OC(n2cnc3c(N[C@@H]4CCOC4)ncnc32)C(O)C1O` (stereo partly drawn) [Compound 62], the Ki in assay [1] was determined as 2190 nM. Moreover, the Emax was determined as 42% in assay [2] and 23% in assay [3].
On to `CCOC(=O)CCNC(=O)OCC1OC(n2cnc3c(N[C@@H]4CCOC4)ncnc32)C(O)C1O` (stereo partly drawn) [Compound 42], for which the Ki in assay [1] was found to be 3150 nM. The Emax worked out at 47% in assay [2] and 16% in assay [3].
In the case of `COC(=S)NCC1OC(n2cnc3c(N[C@@H]4CCOC4)ncnc32)C(O)C1O` (stereo partly drawn) [Compound 71], the values for the Emax in assay [2] and in assay [3] were 98% and 94%, respectively.
Turning to `O=C(NC1CCCC1OCc1ccccc1)OCC1OC(n2cnc3c(N[C@@H]4CCOC4)ncnc32)C(O)C1O` (stereo partly drawn) [Compound 37], the Ki in assay [1] worked out at 4240 nM. In addition, in assay [2], the GTPγS was 30%. In assay [3], the cAMP is listed as −6%.
In assay [2], `OC1CCCC1NC(=S)OCC1OC(n2cnc3c(N[C@@H]4CCOC4)ncnc32)C(O)C1O` (stereo partly drawn) [Compound 64] showed a GTPγS of 99%. Further, the cAMP in assay [3] was 110%.
Regarding `O=C(NC1CCC1)OCC1OC(n2cnc3c(N[C@@H]4CCOC4)ncnc32)C(O)C1O` (stereo partly drawn) [Compound 39, [(5-{6[((3R)oxolan-3-yl)amino}purin-9-yl}(3S,2R,4R,5R)3,4-dihydroxyoxolan-2-yl)methoxy]-N-cyclobutylcarboxaniide], in assay [1], the Ki amounted to 447 nM. Besides, the Emax in assay [2] came to 67%; in assay [3], 45%.
As to `COC(=O)CNC(=O)OCC1OC(n2cnc3c(N[C@@H]4CCOC4)ncnc32)C(O)C1O` (stereo partly drawn) [Compound 43], the Ki in assay [1] amounted to 1700 nM. Besides, the results for the Emax in assay [2] and in assay [3] were 53% and 28%, respectively.
Consider `CNC(=S)SCC1OC(n2cnc3c(NC4CCOC4)ncnc32)C(O)C1O` [Compound 74, 2-{6[((3R)oxolan-3-yl)ainio]purin-9yl}(4S,5S,2R,3R)5-{[(methylamniio)thioxomethylthio]methyl}oxolane3,4diol], for which the Emax was 95% in assay [2] and 82% in assay [3].

What is called Ki is a measure of affinity in units of concentration, obtained from inhibition or displacement. The Emax is the maximal effect, on the per cent scale that the assay sets.
